# Results as given in patent US4138589A, “Substituted isophthalamic acids” (Mallinckrodt, Inc., priority 1977, dated 1979).
# Where “and” joins values, the source holds several entries; their conditions need not be identical. Equal values may be shown once. Where a name gives a salt, the structure may show the parent alone. Read-outs that look alike come from different tables or passages of the source.
# How the values were obtained:
# [1] = Water solubility; assay type: physicochemical; conditions: for solubility: water
# [2] = found by V. H. Wallingford; cited from earlier work
# [3] = prior art; cited from earlier work
# [4] = test system: mice; assay: Intracerebral Toxicity in Mice; assay type: in vivo, Swiss Albino mice (Charles River); conditions: meglumine salt solution, seven day observation
# Procedure: (§1) Satisfactory intravenous urograms are obtained when any of the preparations described in Examples 28-32 is administered to dogs at a dosage of 350 mg. I/kg. Toxicity evaluations by three different techniques were carried out on solutions of the meglumine salts of three 5-acetamido-N-[poly(hydroxyalkyl)alkyl]2,4,6-triiodoisophthalamic acids of the invention. The techniques utilized are outlined below.
# Swiss Albino mice (Charles River) were used. Fixed volumes of solutions of various concentrations of the iodinated compounds were injected intracerebrally via a 27 gauge needle, (1/4 inch length) according to the method of Haley, et al. (Br. J. of Pharmac. 12:12-15, 1957). The animals were observed immediately after injections and daily throughout a seven day observation period. The LD50 values were calculated by the method of Litchfield and Wilcoxon (J. of Pharmac. and Exptl. Therap. 96:99-113, (1949).
# [5] = Acute Intravenous Toxicity Studies in Mice; assay type: in vivo; conditions: mouse, in vivo, iv, meglumine salt solution, 28.27% iodine, lateral tail vein, 1 ml/min, seven day observation; read-out: LD50 I.V. (Mice)
# Procedure: as §1
# (§2) Swiss Albino mice (Charles River) were dosed in the lateral tail vein with solutions of the iodinated compound containing 28.27% of iodine, injected at the rate of 1 ml/min. […] The LD50 values were calculated by the method of Litchfield and Wilcoxon (J. of Pharmac. and Exptl. Therap. 96: 99-113, 1949).
# [6] = test system: rats; assay: Intracisternal Toxicity in Rats; assay type: in vivo, Sprague Dawley (Carworth) rats; conditions: meglumine salt solution, two day observation
# Procedure: as §1
# Sprague Dawley (Carworth) rats were used. The method used was a variation of the procedure outlined by Melartin et al. (Invest. Rad. 5:13-21, 1970). After dosing, the animals were housed individually, and observed for immediate reactions and periodically for a two day observation period. The LD50 values were calculated according to the method of Litchfield and Wilcoxon, (J. of Pharmac. and Exptl. Therap. 96:99-115, 1949).
# [7] = test system: mice; assay: Acute Intravenous Toxicity Studies in Mice; assay type: in vivo; conditions: meglumine salt solution, 28.27% iodine, lateral tail vein, 1 ml/min, seven day observation; 10080 min
# Procedure: as §1, §2
# [8] = temperature not stated, read-out: solubility
smiles,measurement,setting,value
CC(=O)Nc1c(I)c(C(=O)[O-])c(I)c(C(=O)NC(COC(C)=O)(COC(C)=O)COC(C)=O)c1I.[Na+],solubility,"[1]; sodium salt powder, read-out: solubility in water",≥ 1000 mg/mL
COCC(=O)Nc1c(I)c(C(=O)[O-])c(I)c(C(=O)NC(CO)(CO)CO)c1I.[Na+],solubility,"[1]; sodium salt, 25° C., read-out: solubility in water",~674 mg/mL
CC(=O)Nc1c(I)cc(I)c(C(=O)[O-])c1I.[Na+],water solubility (in words),[2],unexpectedly high
same,toxicity (in words),[3],unexpectedly low
"CC(=O)Nc1c(I)c(C(=O)O)c(I)c(C(=O)NCCO)c1I [5-acetamido-2,4,6-triiodo-N-(2-hydroxyethyl)-isophthalamicacid, reference compound]",LD50 Intracerebral (Mice),[4],174 mg. contained iodine/kg. anima
same,LD50 at 168 h,[5],5810 mg/kg
same,LD50 Intracisternal (Rats),[6],49 mg. contained iodine/kg. anima
"CC(=O)Nc1c(I)c(C(=O)O)c(I)c(C(=O)NC(CO)(CO)CO)c1I [Example 7, meglumine salt of 5-acetamido-N-[tris(hydroxymethyl)methyl]-2,4,6-triiodoisophthalamic acid]",solubility,[1]; [8],> 600 mg/mL
"CC(=O)Nc1c(I)c(C(=O)O)c(I)c(C(=O)NC(C)(CO)CO)c1I [Example 10, 5-Acetamido-N-[2-(1,3-dihydroxy-2-methyl) Propyl]-2,4,6-triiodoisophthalamic Acid]",LD50 Intracerebral (Mice),[4],790 mg. contained iodine/kg. anima
same,LD50 at 168 h,[5],4650 mg/kg
same,LD50 Intracisternal (Rats),[6],242 mg. contained iodine/kg. anima
"CC(=O)Nc1c(I)c(C(=O)O)c(I)c(C(=O)NC(C)(CO)CO)c1I [Example 11, 5-Acetamido-N-[2-(1,3-dihydroxy-2-methyl)-propyl]-2,4,6-triiodoisophthalamic Acid, Sodium Salt]",solubility,[1]; [8],~820 mg/mL
"CC(=O)Nc1c(I)c(C(=O)O)c(I)c(C(=O)NC(C)(COC(C)=O)COC(C)=O)c1I [Example 23, Sodium 5-acetamido-N-[(1,3-diacetoxy-2-methyl)-2-propyl]-2,4,6-triiodoisophthalamate]",crystallization of aqueous solution on standing,"[1]; 102.5% w/v solution, room temperature",No crystallization occurred
same,solubility,[1]; [8],> 1000 mg/mL
"COCC(=O)Nc1c(I)c(C(=O)O)c(I)c(C(=O)NC(CO)(CO)CO)c1I [Example 26(d), 2,4,6-Triiodo-5-methoxyacetamido-N-[tris(hydroxymethyl)methyl]isophthalamic Acid]",LD50 Intracerebral (Mice),[4],~650 mg. contained iodine/kg. anima
same,LD50 Intracisternal (Rats),[6],~150 mg. contained iodine/kg. anima
"CC(=O)Nc1c(I)c(C(=O)O)c(I)c(C(=O)NC(CO)(CO)CO)c1I [Examples 4(A) and 5, 5-Acetamido-N-[tris(hydroxymethyl)methyl]-2,4,6-triiodoisophthalamic Acid]",LD50 Intracerebral (Mice),[4],700 mg. contained iodine/kg. anima and 638 mg. contained iodine/kg. anima
same,LD50 at 168 h,[5],6150 mg/kg
same,LD50 I.V. (Mice),[7],6200 mg. contained iodine/kg. anima
same,LD50 Intracisternal (Rats),[6],151 mg. contained iodine/kg. anima
"CNC(=O)c1c(I)c(NC(C)=O)c(I)c(C(=O)O)c1I [Iothalamic Acid, 5-acetamido-2,4,6-triiodo-N-methylisophthalamic acid, reference compound]",LD50 Intracerebral (Mice),[4],280 mg. contained iodine/kg. anima
same,LD50 at 168 h,[5],5740 mg/kg
same,LD50 Intracisternal (Rats),[6],86 mg. contained iodine/kg. anima
"CC(=O)Nc1c(I)c(NC(C)=O)c(I)c(C(=O)O)c1I [diatrizoic acid, 3,5-diacetamido-2,4,6-triiodobenzoic acid]",toxicity (in words),[3],still further reduced toxicity as compared with acetrizoic acid
"Nc1c(I)c(C(=O)O)c(I)c(C(=O)NC(CO)(CO)CO)c1I [sodium salt of 5-amino-N-[tris-(hydroxymethyl)methyl]-2,4,6-triiodoisophthalamic acid]",solubility,"[1]; sodium salt, temperature not stated, read-out: water solubility",~800 mg/mL
CC(CO)(CO)NC(=O)c1c(I)c(N)c(I)c(C(=O)O)c1I [sodium salt of Example 9],solubility,[1]; [8],~930 mg/mL
